# In patent publication US10744201B2, “Method for treating rheumatoid arthritis with a human IL-6 receptor antibody and methotrexate” (Chugai Seiyaku Kabushiki Kaisha, priority 2003, dated 2020):
# Legend:
# [1] = test system: patients with active rheumatoid arthritis; assay: Phase II trial: reduction of swollen joint count; type: in vivo, human
# Experimental: (§1) The efficacy, safety and tolerability of MRA were assessed.
# Reduction of Swollen Joint Count (Table 2)
# The mean swollen joint count was similar across all the treatment groups at baseline.
# [2] = test system: patients with active rheumatoid arthritis; assay: Phase II trial of MRA alone and with methotrexate: ACR 20/50/70 improvement rates; type: in vivo, human; conditions: for ACR 20 / ACR 50 / ACR 70: 16 weeks
# Experimental: as §1
# Study design: a double-blind, randomized, parallel group study by central randomization method
# ACR improvement criteria: The cases where among the following 7 items, the number of swelling joints and the number of pain joints are improved by 20% or more and improvement by 20% or more is observed in three out of the remaining five items are determined as 20% or more improvement in ACR criteria. Further, 50% and 70% improvement cases indicate the patient cases where the above 20% improved parts are improved by 50% and 70%, respectively.
# (1) Number of swelling joints
# (2) Number of tender joints
# (3) Pain assessment by a patient
# (4) Global assessment of disease activity by a patient
# (5) Global disease activity by a physician
# (6) Assessment of physical function by a patient
# [3] = test system: patients with active rheumatoid arthritis; assay: Phase II trial: safety (adverse events, laboratory data, infusion reaction); conditions: for serious adverse events of which causal relationship could not be denied: hypersensitivity: no combination with MTX, after the 3rd or 4th MRA administration
# Experimental: Subjects: Patients with rheumatoid arthritis diagnosed based on the 1987 disease classification of the American College of Rheumatology (ACR), of at least 6 months duration were enrolled.
# Dosage and Administration: Seven groups: 0 mg/kg (placebo)+MTX, 2 mg/kg MRA+MTX, 4 mg/kg MRA+MTX, 8 mg/kg MRA+MTX, 2 mg/kg MRA+MTX placebo, 4 mg/kg MRA+MTX placebo, and 8 mg/kg MRA+MTX placebo. MRA or placebo administration is given by intravenous infusion, at 4-week intervals. MTX or MTX placebo administration is given orally, once weekly, at 10-25 mg/week.
# Study Method: The assigned dose was administered by intravenous infusion, four times in total at 4-week intervals, and efficacy and safety were evaluated at 2-week intervals up to 16 weeks, and follow-up observation was done at 20 weeks. The primary endpoint for efficacy was the rate of ACR 20 at 16 weeks (4 weeks after the last dose). Secondary endpoints included rates of ACR 50 and ACR 70 at 16 weeks (4 weeks after the last dose).
# Among 359 enrolled patients, the safety evaluation sets, the full analysis sets, and PPS (per protocol set) were 359, 354, and 307, respectively.
# An infusion reaction was defined as an adverse event occurring within 24 hours of study drug administration.
# [4] = test system: patients with active rheumatoid arthritis; assay: Phase II trial: development of anti-MRA antibodies; type: in vivo, human; conditions: 8 mg/kg treatment groups
# Experimental: as §1
# The development of anti-MRA antibodies was examined. None occurred at the 8 mg/kg treatment groups (monotherapy or combination with MTX). At 2 or 4 mg/kg treatment groups, the number of incidents was less in groups in combination with MTX than MRA monotherapy groups.
# [5] = 0 mg/kg (placebo)+MTX 10-25 mg/week oral (control group)
# [6] = 2 mg/kg MRA i.v. at 4-week intervals x4, with MTX or MTX placebo 10-25 mg/week oral
# [7] = 4 mg/kg MRA i.v. at 4-week intervals x4, with MTX or MTX placebo 10-25 mg/week oral
# [8] = 8 mg/kg MRA i.v. at 4-week intervals x4, with MTX or MTX placebo 10-25 mg/week oral
compound,measurement,setting,value
"CN(Cc1cnc2nc(N)nc(N)c2n1)c1ccc(C(=O)N[C@@H](CCC(=O)O)C(=O)O)cc1 [MTX, methotrexate]","Swollen joint count, Change from Baseline, Mean ± SD","[1]; MTX alone (MRA placebo), Week 16",−5.7 ± 6.1
same,ACR 20,[2]; [5],40.8%
same,ACR 50,[2]; [5],28.6%
same,ACR 70,[2]; [5],16.3%
MRA: recombinant humanised anti-human interleukin-6 receptor monoclonal antibody of the IgG1 sub-class that inhibits the function of IL-6,"Swollen joint count, Change from Baseline, Mean ± SD","[1]; 2 mg/kg MRA, with MTX or MTX placebo, Week 16",−4.5 ± 5.7
same,"Swollen joint count, Change from Baseline, Mean ± SD","[1]; 4 mg/kg MRA, with MTX or MTX placebo, Week 16",−5.8 ± 4.1
same,"Swollen joint count, mean difference (95% CI) to the MTX group","[1]; 8 mg/kg MRA group vs MTX group, Week 16","−2.31 (−4.07, −0.55)"
same,"Swollen joint count, Change from Baseline, Mean ± SD","[1]; 8 mg/kg MRA, with MTX or MTX placebo, Week 16",−8.4 ± 4.6
same,linear dose-relationship of reduction in swollen joint count,"[1]; 2, 4, 8 mg/kg MRA groups, monotherapy p<0.001, combination p=0.004",statistically significant linear dose-relationship
same,serious adverse events of which causal relationship could not be denied: hypersensitivity,[3]; 2 mg/kg MRA group,four patients of hypersensitivity
same,serious adverse events of which causal relationship could not be denied: hypersensitivity,[3]; 4 mg/kg MRA group,one patient of hypersensitivity
same,Atherogenic Index,[3]; MRA groups,no overall change
same,"laboratory data relating to lipids (total cholesterol, HDL cholesterol and triglyceride)",[3]; MRA groups,increase
same,number of patients experiencing an infusion reaction (adverse event within 24 hours of study drug administration),[3]; across treatment groups,possible inverse dose-response
same,ALT and AST levels (hepatic functions),[3]; equivalent to elevations observed in other patients with rheumatoid arthritis,elevation
same,CRP and ESR (parameters for disease activity),[3]; in a dose dependent manner,decreases of CRP and ESR
same,hemoglobin (parameter for disease activity),[3]; in a dose dependent manner,elevation of hemoglobin
same,neutrophil count,[3]; in some patients,Slight transient decrease
same,safety,[3]; in vivo,confirmed
same,ACR 20,[2]; [6],30.8%
same,ACR 50,[2]; [6],5.8%
same,ACR 70,[2]; [6],1.9%
same,ACR 20,[2]; [7],61.1%
same,ACR 50,[2]; [7],27.8%
same,ACR 70,[2]; [7],5.6%
same,ACR 20,[2]; [8],62.7%
same,ACR 50,[2]; [8],41.2%
same,ACR 70,[2]; [8],15.7%
same,dose dependency in ACR 20 improvement rate,"[2]; 2, 4, 8 mg/kg MRA alone groups",statistically significant dose dependency
same,dose dependent response for ACR50 and ACR70 improvement rate,"[2]; 2, 4, 8 mg/kg MRA, alone and MTX-combined groups",statistically significant dose dependent response
same,dose-response (overall result),[2]; in vivo,clear dose-response
same,effectiveness to treat patients with rheumatoid arthritis,[2]; in vivo,confirmed
same,development of anti-MRA antibodies,[4],None
